The source of these data is publication PMC10951066, “The self-reactive FVIII T cell repertoire in healthy individuals relies on a short set of epitopes and public clonotypes” (Frontiers in Immunology, 2024).

Common to all, as to experiment: Peptide-MHCII competition binding assay
Experiment [1] deals with HLA-DRB1*1101 (Homo sapiens, UniProt P01903+P01911, A100R/A169T/A87E/I96F/K41T/L162R/M171V/P40S/Q125H/Q178H/Q39Y/Q99D/R42S/S66Y/T262R/V115G/W38E). Particulars: competition ELISA, pH 5.9, peptide 90.000nM – 0.9nM, HLA-DRB1 30 nM, biotinylated peptide 15nM, duplicate wells; ratios below 10 = good binding; reference peptide […].
For experiment [2], the target named is HLA-DRB1*0401 (Homo sapiens, UniProt P01903+P01911, A100K/A169T/F76Y/I96L/K127E/L162R/M171V/N62H/P40V/Q125Y/R42H/S133A/S149N/S66Y/V115G/V209L/W38E). Particulars: competition ELISA, pH 5.9, peptide 90.000nM – 0.9nM, HLA-DRB1 30 nM, biotinylated peptide 15nM, duplicate wells; ratios below 10 = good binding; reference peptide […].
The target of experiment [3] is HLA-DRB1*0301 (Homo sapiens, UniProt P01903+P01911, A100K/A102G/A103R/A169T/F55Y/I96L/K41T/L162R/M171V/P40S/Q125H/Q178H/Q39Y/R42S/S66N/T106N/T262R/W38E/Y61H). The conditions noted are these: competition ELISA, pH 5.9, peptide 90.000nM – 0.9nM, HLA-DRB1 30 nM, biotinylated peptide 15nM, duplicate wells; ratios below 10 = good binding; reference peptide SFLLTDLINRRTPRVDGQ

Experiment [4] concerns the target HLA-DRB1*0101 (Homo sapiens, UniProt P01903+P01911, A100R/D57E/F55L/F60I/F76Y/I96L/L162R/M171V/P40L/Q125E/R42F/V115G/Y59C). Particulars: competition ELISA, pH 5.9, peptide 90.000nM – 0.9nM, HLA-DRB1 30 nM, biotinylated peptide 15nM, duplicate wells; ratios below 10 = good binding; reference peptide […].

For “ATRRYYLGAVELSWDYMQSD [P20-39, 20-mer FVIII peptide, A1 domain]”, the “Ratio IC50 DRB1*1101” value in experiment [1] is reported as 0.8. Further, the “Ratio IC50 DRB1*0401” value in experiment [2] is 1.7. Besides, the “Ratio IC50 DRB1*0301” value in experiment [3] was determined as 850.

As for “DHLFNIAKPRPPWMGLLGPT [P75-94, 20-mer FVIII peptide, A1 domain]”, in experiment [1], the “Ratio IC50 DRB1*1101” value was found to be 1.8. The “Ratio IC50 DRB1*0101” value in experiment [4] is listed as 747. Moreover, in experiment [2], the “Ratio IC50 DRB1*0401” value stood at 27. For the same sequence, the “Ratio IC50 DRB1*0301” value in experiment [3] turned out to be 40.

Regarding “HPQSWVHQIALRMEVLGCEA [P2328-2347, 20-mer FVIII peptide, C2 domain]”, the “Ratio IC50 DRB1*1101” value in experiment [1] was 2. Besides, the “Ratio IC50 DRB1*0101” value in experiment [4] is listed as 1.6. The “Ratio IC50 DRB1*0401” value in experiment [2] was found to be 1240. For the same sequence, the “Ratio IC50 DRB1*0301” value in experiment [3] is 0.0.

Regarding “INGYIMDTLPGLVMAQDQRI [P1940-1959, 20-mer FVIII peptide, A3 domain]”, the “Ratio IC50 DRB1*1101” value in experiment [1] was 0.5. Also, in experiment [4], the “Ratio IC50 DRB1*0101” value was 6. Also, in experiment [2], the “Ratio IC50 DRB1*0401” value amounted to 0.1.

As for “KARLHLQGRSNAWRPQVNNP [P2226-2245, 20-mer FVIII peptide, C2 domain]”, the “Ratio IC50 DRB1*1101” value in experiment [1] turned out to be 1.9. Also, in experiment [4], the “Ratio IC50 DRB1*0101” value came out at 0.2. Besides, in experiment [2], the “Ratio IC50 DRB1*0401” value is recorded as 3. Also, the “Ratio IC50 DRB1*0301” value in experiment [3] amounted to 33.

“KEPFSWIKVDLLAPMIIHGI [P2084-2103, 20-mer FVIII peptide, C1 domain]”: the “Ratio IC50 DRB1*0401” value in experiment [2] turned out to be 1.9. Besides, the “Ratio IC50 DRB1*0301” value in experiment [3] worked out at 6.6.

Take “KKEEYKMALYNLYPGVFETV [P1986-2005, 20-mer FVIII peptide, A3 domain]”: the “Ratio IC50 DRB1*0101” value in experiment [4] is on record as 182. The “Ratio IC50 DRB1*0401” value in experiment [2] is on record as 622.5.

“KLARLHYSGSINAWSTKEPF [P2068-2087, 20-mer FVIII peptide, C1 domain]”: in experiment [1], the “Ratio IC50 DRB1*1101” value was determined as 4.6. The “Ratio IC50 DRB1*0101” value in experiment [4] is on record as 70.5. Moreover, the “Ratio IC50 DRB1*0401” value in experiment [2] was found to be 0.2.

In the case of “LGQFLLFCHISSHQHDGMEA [P322-341, 20-mer FVIII peptide, A1 domain]”, the “Ratio IC50 DRB1*1101” value in experiment [1] was determined as 0.05.

Turning to “LLTRYLRIHPQSWVHQIALR [P2320-2339, 20-mer FVIII peptide, C2 domain]”, in experiment [1], the “Ratio IC50 DRB1*1101” value worked out at 1. Besides, the “Ratio IC50 DRB1*0101” value in experiment [4] turned out to be 1. Besides, the “Ratio IC50 DRB1*0401” value in experiment [2] was found to be 76. The “Ratio IC50 DRB1*0301” value in experiment [3] turned out to be 114.

For the sequence “LSHVDLVKDLNSGLIGALLV [P178-197, 20-mer FVIII peptide, A1 domain]”, in experiment [1], the “Ratio IC50 DRB1*1101” value amounted to 0.1. Also, in experiment [4], the “Ratio IC50 DRB1*0101” value is given as 1.7. The “Ratio IC50 DRB1*0401” value in experiment [2] was 0.05. The “Ratio IC50 DRB1*0301” value in experiment [3] amounted to 0.05.

With PPIIARYIRLHPTHYSIRST [P2161-2180], in experiment [1], the “Ratio IC50 DRB1*1101” value was 0.4. Moreover, in experiment [4], the “Ratio IC50 DRB1*0101” value came out at 1. In experiment [2], the “Ratio IC50 DRB1*0401” value is given as 5.6. Moreover, the “Ratio IC50 DRB1*0301” value in experiment [3] is given as 21.

As for “RHYFIAAVERLWDYGMSSSP [P1715-1734, 20-mer FVIII peptide, A3 domain]”, the “Ratio IC50 DRB1*0101” value in experiment [4] turned out to be 20.4. For the same sequence, in experiment [2], the “Ratio IC50 DRB1*0401” value is listed as 138.

With “SLYISQFIIMYSLDGKKWQT [P2114-2133, 20-mer FVIII peptide, C1 domain]”, the “Ratio IC50 DRB1*1101” value in experiment [1] stood at 0.4. Further, in experiment [4], the “Ratio IC50 DRB1*0101” value was found to be 0.2. Besides, the “Ratio IC50 DRB1*0401” value in experiment [2] worked out at 0.6. Moreover, the “Ratio IC50 DRB1*0301” value in experiment [3] was determined as 30.

Regarding “VHSIFLEGHTFLVRNHRQAS [P285-304, 20-mer FVIII peptide, A1 domain]”, the “Ratio IC50 DRB1*1101” value in experiment [1] was 0.0. In addition, the “Ratio IC50 DRB1*0101” value in experiment [4] came to 163. For the same sequence, the “Ratio IC50 DRB1*0401” value in experiment [2] is 57.6. Moreover, the “Ratio IC50 DRB1*0301” value in experiment [3] was determined as 58.

“YDTVVITLKNMASHPVSLHA [P100-119, 20-mer FVIII peptide, A1 domain]”: in experiment [1], the “Ratio IC50 DRB1*1101” value was 2. Besides, the “Ratio IC50 DRB1*0101” value in experiment [4] came to 226. For the same sequence, in experiment [2], the “Ratio IC50 DRB1*0401” value was found to be 17. Also, in experiment [3], the “Ratio IC50 DRB1*0301” value stood at 30.
